From ChEMBL document CHEMBL1201862, “PubChem BioAssay data set” (2004)
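Exposure lasted 48 hours, with cells grown in 96-well plates and compounds tested at five concentrations. The concentration for 50% growth inhibition is given as GI50.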 Activity calls are given as the source filed them. Cut-off read from the data, not from the text of the source: active = GI50 up to about 1.1 µM and inactive = higher.

Experiments:
Assay in all cases: NCI tumour cell line growth inhibition, 48 h
A549 = tested on: A549
BT-549 = tested on: BT-549
CAKI-1 = tested on: CAKI-1
HCT-116 = tested on: HCT-116
HCT-15 = tested on: HCT-15
HOP-62 = tested on: HOP-62
IGROV-1 = tested on: IGROV-1
KM12 = tested on: KM12
LOX IMVI = tested on: LOX IMVI
MOLT-4 = tested on: MOLT-4
NCI-H226 = tested on: NCI-H226
RXF 393 = tested on: RXF 393
SF-295 = tested on: SF-295
SK-MEL-2 = tested on: SK-MEL-2
SK-MEL-5 = tested on: SK-MEL-5
SK-OV-3 = tested on: SK-OV-3
SNB-19 = tested on: SNB-19
SW-620 = tested on: SW-620
TK-10 = tested on: TK-10
Malme-3M = tested on: Malme-3M

SMILES	GI50 (A549)	GI50 (BT-549)	GI50 (CAKI-1)	GI50 (HCT-116)	GI50 (HCT-15) [µM]	GI50 (HOP-62)	GI50 (IGROV-1)	GI50 (KM12)	GI50 (LOX IMVI)	GI50 (MOLT-4)	GI50 (NCI-H226)	GI50 (RXF 393)	GI50 (SF-295)	GI50 (SK-MEL-2)	GI50 (SK-MEL-5)	GI50 (SK-OV-3)	GI50 (SNB-19)	GI50 (SW-620)	GI50 (TK-10)	GI50 (Malme-3M)
COC(=O)C(CCC1C=CN(S(=O)(=O)c2ccc(C)cc2)C1)/N=C/c1ccccc1 (stereo not drawn)	42.4 µM (inactive)	39.6 µM (inactive)	87.3 µM (inactive)	33.4 µM (inactive)	88.5	59.2 µM (inactive)	38.4 µM (inactive)	34.8 µM (inactive)	47.4 µM (inactive)	32.8 µM (inactive)	32.3 µM (inactive)	75.5 µM (inactive)	41.1 µM (inactive)	20.1 µM (inactive)	22.2 µM (inactive)	80 µM (inactive)	45 µM (inactive)	41.1 µM (inactive)	83.2 µM (inactive)	
NCCCN1CCN(CCCNc2ccc3nnn4c5ccccc5c(=O)c2c34)CC1	28.2 µM (inactive)	5.81 µM (inactive)	14.6 µM (inactive)	6.73 µM (inactive)	20.7	13.7 µM (inactive)	13.5 µM (inactive)		8.32 µM (inactive)	9.51 µM (inactive)			16.8 µM (inactive)	18.7 µM (inactive)	13.5 µM (inactive)	57.4 µM (inactive)	12.8 µM (inactive)	11 µM (inactive)	24.9 µM (inactive)	18.8 µM (inactive)
C=C1[C@H](OC(C)=O)[C@H]2[C@@H](OC(C)=O)[C@@H](C)C[C@]2(C)C(=O)[C@H](C)/C=C/C(C)(C)C(=O)[C@H](OCC(C)C)[C@H]1OC(C)=O		> 25 µM (inactive)	24.7 µM (inactive)	> 25 µM (inactive)	> 25	19.5 µM (inactive)	> 25 µM (inactive)	> 25 µM (inactive)	> 25 µM (inactive)	20.7 µM (inactive)	> 25 µM (inactive)	> 25 µM (inactive)	22.9 µM (inactive)	> 25 µM (inactive)	> 25 µM (inactive)	> 25 µM (inactive)	> 25 µM (inactive)	> 25 µM (inactive)	> 25 µM (inactive)	
COc1ccc(-n2sc3ncccc3c2=O)cc1	69.5 µM (inactive)	20.4 µM (inactive)		17.7 µM (inactive)	22.6	23.1 µM (inactive)	23.6 µM (inactive)	19.1 µM (inactive)	30.8 µM (inactive)	8.18 µM (inactive)	39.4 µM (inactive)		> 100 µM (inactive)	> 100 µM (inactive)	20 µM (inactive)	> 100 µM (inactive)	> 100 µM (inactive)	32.1 µM (inactive)	18.9 µM (inactive)	15.8 µM (inactive)
C[n+]1c(-c2ccc(/C=N\N3CCN(/N=C/c4ccc(-c5cn6ccsc6[n+]5C)cc4)CC3)cc2)cn2ccsc21	44.1 µM (inactive)	17.1 µM (inactive)	34 µM (inactive)	33.3 µM (inactive)	34.5		30.7 µM (inactive)	25.8 µM (inactive)	60.8 µM (inactive)	85.3 µM (inactive)	45.8 µM (inactive)	27.3 µM (inactive)	28.6 µM (inactive)	31.8 µM (inactive)	22.8 µM (inactive)	8.04 µM (inactive)	38.4 µM (inactive)	32.1 µM (inactive)	35.7 µM (inactive)	
O=P(O)(O)c1ccc2c(c1)OCCOCCOCCOCCO2	> 100 µM (inactive)	> 100 µM (inactive)		> 100 µM (inactive)	> 100	> 100 µM (inactive)	> 100 µM (inactive)	> 100 µM (inactive)	> 100 µM (inactive)	> 100 µM (inactive)	> 100 µM (inactive)		> 100 µM (inactive)		> 100 µM (inactive)	> 100 µM (inactive)	> 100 µM (inactive)	> 100 µM (inactive)	> 100 µM (inactive)	> 100 µM (inactive)
CNC1=C/C(=N/C2=CC(=N/C(=C\C#N)C(C)(C)O)/OC2(C)C)OC1(C)C	15.5 µM (inactive)	29.6 µM (inactive)	7.82 µM (inactive)	5.15 µM (inactive)	5.31	7.96 µM (inactive)	6.52 µM (inactive)	13.5 µM (inactive)	5.51 µM (inactive)	2.31 µM (inactive)	20.8 µM (inactive)		23.9 µM (inactive)	44.4 µM (inactive)	14.9 µM (inactive)	17.1 µM (inactive)	33 µM (inactive)	5.4 µM (inactive)	21.3 µM (inactive)	25.2 µM (inactive)
O=C1C(Br)=C(c2ccccc2)O/C1=C/C(=O)c1ccc(Br)cc1		5.38 µM (inactive)	19 µM (inactive)	39.4 µM (inactive)	89.9	> 100 µM (inactive)	54.7 µM (inactive)	> 100 µM (inactive)		31.6 µM (inactive)	> 100 µM (inactive)	17.7 µM (inactive)			52.8 µM (inactive)		> 100 µM (inactive)	23.5 µM (inactive)	37.3 µM (inactive)	58.2 µM (inactive)
CCOC(=O)[C@H]1C[C@@H](C(=O)c2ccccc2)N2N=C(c3ccc(Br)cc3)C=C[C@H]12	> 100 µM (inactive)	> 100 µM (inactive)	> 100 µM (inactive)	> 100 µM (inactive)	> 100	> 100 µM (inactive)		> 100 µM (inactive)	> 100 µM (inactive)	77.6 µM (inactive)	> 100 µM (inactive)	> 100 µM (inactive)	> 100 µM (inactive)	> 100 µM (inactive)		> 100 µM (inactive)	> 100 µM (inactive)	> 100 µM (inactive)	> 100 µM (inactive)	
CC(=O)c1cn(-c2ccc(Cl)cc2)c(=O)c2c(N)n[nH]c12		2.56 µM (inactive)	> 100 µM (inactive)	> 100 µM (inactive)	> 100	> 100 µM (inactive)	> 100 µM (inactive)	> 100 µM (inactive)	43 µM (inactive)	> 100 µM (inactive)	> 100 µM (inactive)	> 100 µM (inactive)	> 100 µM (inactive)	> 100 µM (inactive)	> 100 µM (inactive)	> 100 µM (inactive)	> 100 µM (inactive)	> 100 µM (inactive)	> 100 µM (inactive)	
CCOc1cc(C2SCC(=O)N2c2ccc(Oc3ccc(Cl)cc3)c(Cl)c2)ccc1O (stereo not drawn)	17.9 µM (inactive)	15.1 µM (inactive)	17.3 µM (inactive)	12.2 µM (inactive)	19.6	17.6 µM (inactive)	15.9 µM (inactive)	16.9 µM (inactive)	19.4 µM (inactive)	18.1 µM (inactive)	15.6 µM (inactive)		18.9 µM (inactive)	14 µM (inactive)	16.1 µM (inactive)	21.6 µM (inactive)	17.8 µM (inactive)	17 µM (inactive)	17.6 µM (inactive)	17.1 µM (inactive)
CC(=O)OC1CC2(C)C(OC(C)=O)CC1C2(C)C (stereo not drawn)	> 100 µM (inactive)	> 100 µM (inactive)		> 100 µM (inactive)	> 100	> 100 µM (inactive)	> 100 µM (inactive)	> 100 µM (inactive)	> 100 µM (inactive)	> 100 µM (inactive)	> 100 µM (inactive)	> 100 µM (inactive)	> 100 µM (inactive)		> 100 µM (inactive)	> 100 µM (inactive)	> 100 µM (inactive)	> 100 µM (inactive)	> 100 µM (inactive)	> 100 µM (inactive)
OCCCCCCCCCCCOc1ccc(C2OCC3(CO2)COC(c2ccc(OCCCCCCCCCCCO)cc2)OC3)cc1 (stereo not drawn)	> 50 µM (inactive)	> 50 µM (inactive)	> 50 µM (inactive)	> 50 µM (inactive)	> 50	> 50 µM (inactive)	> 50 µM (inactive)	> 50 µM (inactive)	> 50 µM (inactive)	> 50 µM (inactive)	29.6 µM (inactive)		> 50 µM (inactive)	> 50 µM (inactive)	> 50 µM (inactive)	> 50 µM (inactive)	> 50 µM (inactive)	> 50 µM (inactive)	> 50 µM (inactive)	> 50 µM (inactive)
O=[N+]([O-])c1cccc(-c2ccc([C@H]3CC(c4ccc(Cl)cc4)=NN3)o2)c1	> 100 µM (inactive)	17.6 µM (inactive)	26.1 µM (inactive)	15.2 µM (inactive)	5.15	20.3 µM (inactive)	21 µM (inactive)			0.891 µM (active)	25.5 µM (inactive)	16.8 µM (inactive)	44.8 µM (inactive)		13.8 µM (inactive)	28.8 µM (inactive)	38.4 µM (inactive)	19.5 µM (inactive)	19.6 µM (inactive)	15.8 µM (inactive)
Cc1cccc(NC(=O)/C(=N\N)C(c2cnc3ccc([N+](=O)[O-])cc3n2)[N+](=O)[O-])c1C (stereo not drawn)	> 100 µM (inactive)		> 100 µM (inactive)	> 100 µM (inactive)	53.8	> 100 µM (inactive)	> 100 µM (inactive)	41.8 µM (inactive)	74.8 µM (inactive)	> 100 µM (inactive)	> 100 µM (inactive)	> 100 µM (inactive)	> 100 µM (inactive)	> 100 µM (inactive)	> 100 µM (inactive)	> 100 µM (inactive)	> 100 µM (inactive)	> 100 µM (inactive)	> 100 µM (inactive)	> 100 µM (inactive)
